This passage reports mortality and pest or weed control results from US4791139A, “Diphenyl ether derivatives and their use as insecticides” (Imperial Chemical Industries PLC, priority 1986, dated 1988).

What all share (assay type): in vivo
Test [1] has as its system Diabrotica balteata (rootworm larvae). Put plainly: Residual test, rootworm larvae (DB), Filter paper/maize seed. The conditions noted are these: 72 h, 3 days, read-out: DB grading of mortality. The protocol:
(§1) The activity of the Product was determined using a variety of insect pests. The Product was used in the form of liquid preparations containing from 100 to 500 parts per million (ppm) by weight of the Product. The preparations were made by dissolving the Product in acetone and diluting the solutions with water containing 0.1% by weight of a wetting agent sold under the trade name "SYNPERONIC" NX until the liquid preparations contained the required concentration of the Product. "SYNPERONIC" is a Registered Trade Mark. The test procedure adopted with regard to each pest was basically the same and comprised supporting a number of the pests on a medium which was usually a host plant or a foodstuff on which the pests feed, and treating either or both the pests and the medium with the preparations. The mortality of the pests was then assessed at periods usually varying from one to seven days after the treatment.

Test [2] concerns Meloidogyne incognita (Tomato root knot eelworm - larvae). As to the kind of experiment: Residual test, Tomato root knot eelworm - larvae (MI), Semi in-vitro. The conditions noted are these: 168 h, application rate is half that recorded, 7 days, read-out: MI grading of mortality; for mortality at 125 µg/mL: rate 250 ppm; for mortality at 250 µg/mL: rate column 500 ppm.
The test system of test [3] is Tetranychus urticae (spider mites - adult). As to the kind of experiment: Contact test, spider mites - adult (TUa), French bean leaf. The note with it: 72 h, 3 days, read-out: TUA grading of mortality. The protocol: as §1
For test [4], the system named is Musca domestica (houseflies - adults). As to the kind of experiment: Contact test, houseflies - adults (MD), Cotton wool/sugar. The conditions noted are these: 24 h, 1 day, read-out: MD grading of mortality. The protocol:
as §1

Test [5] has as its system Spodoptera exigua (lesser army worm - larvae). Put plainly: Residual test, lesser army worm - larvae (SP), Cotton leaf. The conditions noted are these: 72 h, 3 days, read-out: SP grading of mortality. The protocol:
(§2) The activity of the Product was determined using a variety of insect pests. The Product was used in the form of liquid preparations containing from 100 to 500 parts per million (ppm) by weight of the Product. The preparations were made by dissolving the Product in acetone and diluting the solutions with water containing 0.1% by weight of a wetting agent sold under the trade name "SYNPERONIC" NX until the liquid preparations contained the required concentration of the Product. "SYNPERONIC" is a Registered Trade Mark.
(§3) The test procedure adopted with regard to each pest was basically the same and comprised supporting a number of the pests on a medium which was usually a host plant or a foodstuff on which the pests feed, and treating either or both the pests and the medium with the preparations. The mortality of the pests was then assessed at periods usually varying from one to seven days after the treatment.
(§4) The results of the tests are given in Table III for each of the Products, at the rate in parts per million given in the second column as a grading of mortality designated as A, B or C wherein A indicates 80-100% mortality or knockdown (70-100% for Meloidogyne incognita), B indicates 50-79% mortality knockdown or knockdown (50-69% for Meloidogyne incognita) and C indicates less than 50% mortality or knockdown.
(§5) In Table III the pest organism used is designated by a letter code and the pests species, the support medium or food, and the type and duration of test is given in Table II.
(lesser army worm - larvae)

Test [6] relates to Myzus persicae (aphids). As to the kind of experiment: Contact test, aphids (MP), Chinese Cabbage leaf. The note with it: 72 h, 3 days, read-out: MP grading of mortality. The protocol:
as §1, with “treatment. […] In Table III the pest organism used is designated by a letter code and the pests species, the support medium or food, and the type and duration of test is given in Table II.” for “treatment.”

For test [7], the system named is Blattella germanica (cockroach nymphs). As to the kind of experiment: Residual test, cockroach nymphs (BG), Plastic pot. The note with it: 72 h, 3 days, read-out: BG grading of mortality. The protocol:
as §1

The subject of test [8] is Tetranychus urticae (spider mites - ova). As to the kind of experiment: Contact test, spider mites - ova (TUe), French bean leaf. The conditions noted are these: 144 h, 6 days, read-out: TUE grading of mortality. The protocol: as §1
Test [9] has as its system Nilaparvata lugens (brown plant hopper - nymphs). Put plainly: Contact test, brown plant hopper - nymphs (NL), Rice plant. The note with it: 72 h, 3 days, read-out: NL grading of mortality. Here is the method:
as §1

In test [10] the test system is Heliothis virescens (tobacco budworm - larvae). Put plainly: Residual test, tobacco budworm - larvae (HV), Cotton leaf. The conditions noted are these: 72 h, read-out: HV grading of mortality. Here is the method: as §2, §3, §4, §5
(tobacco budworm - larvae)

Test [11] relates to Musca domestica (houseflies - adults). Put plainly: Knockdown test, houseflies - adults (MD/KD), Cotton wool/sugar. The conditions noted are these: 4 hours, read-out: MD/KD grading of knockdown. The protocol:
as §2, §3
In the case of the species Musca domestica (housefly), an additional assessment to determine the knockdown effect of the compounds was performed.
as §5

On to `Fc1ccc(C(CCCc2cccc(Oc3ccccc3)c2)C(F)(F)F)cc1` (racemic) [Compound 53, 1,1,1-Trifluoro-2-(4-fluorophenyl)-5-(3-phenoxyphenyl)pentane], for which the mortality at 250 ppm in [1], in test [3], in test [4], in test [5], in [6] and in [7] was 80 to 100% throughout. Also, the mortality at 250 ppm is below 50% in [8], 80 to 100% in [9] and 80 to 100% in [10]. Further, the mortality at 125 µg/mL in test [2] was below 50%. Also, the pest or weed control at 250 ppm in test [11] is below 50%.
`CCOc1ccc(C(CCC(C)c2cccc(Oc3ccccc3)c2)C(F)(F)F)cc1` (racemic) [Compound 55, 1,1,1-Trifluoro-2-(4-ethoxyphenyl)-5-(3-phenoxyphenyl)hexane]: the mortality at 500 ppm is 50 to 79% in [1]; below 50% in test [3]; 80 to 100% in [4]; 80 to 100% in test [5]; 80 to 100% in test [6]; 80 to 100% in test [7]. Moreover, the mortality at 500 ppm is below 50% in test [8], 80 to 100% in [9] and 80 to 100% in test [10]. Moreover, in test [2], the mortality at 250 µg/mL was below 50%. The pest or weed control at 500 ppm in test [11] lay in the range of 80 to 100%.
`Fc1ccc(C=CC=C(c2ccc(OC(F)(F)F)cc2)C(F)(F)Cl)cc1Oc1ccccc1` [Compound 76, 1,1-Difluoro-1-chloro-2-(4-trifluoromethoxyphenyl)-5-(4-fluoro-3-phenoxyphenyl)penta-2,4-diene]: the mortality at 500 ppm in test [1] was 80 to 100%; in [3], below 50%; in test [4], below 50%; in test [5], below 50%; in test [6], below 50%; in test [7] it was below 50%. The mortality at 500 ppm in test [8] is below 50%; in [9], 80 to 100%; in [10] it was below 50%. Further, the mortality at 250 µg/mL in test [2] was below 50%. In addition, in test [11], the pest or weed control at 500 ppm was below 50%.
As for `CCOc1c(F)cc(C(CCCc2cccc(Oc3ccccc3)c2)C(F)(F)F)cc1F` (racemic) [Compound 57, 1,1,1-Trifluoro-2-(3,5-difluoro-4-ethoxyphenyl)-5-(3-phenoxyphenyl)pentane], the mortality at 500 ppm in test [1], in [3], in test [4], in [5], in [6] and in test [7] was 80 to 100% throughout. Also, the mortality at 500 ppm in [8], in [9] and in [10] was 80 to 100% in each case. For the same compound, in [2], the mortality at 250 µg/mL is below 50%. The pest or weed control at 500 ppm in test [11] was in the range of 80 to 100%.
As for `CCOc1ccc(C(CC=Cc2cccc(Oc3ccccc3)n2)C(F)(F)F)cc1` (stereo not drawn) [Compound 99, 1,1,1-Trifluoro-2-(4-ethoxyphenyl)-5-(6-phenoxypyrid-2-yl)pent-4-ene], the mortality at 500 ppm in test [1] was below 50%; in test [3] it was below 50%; in test [4], 80 to 100%; in [5], 50 to 79%; in [6], 50 to 79%; in test [7], below 50%. In addition, the values for the mortality at 500 ppm in [8], in test [9] and in test [10] were below 50%, below 50% and 80 to 100%, respectively. In addition, the mortality at 250 µg/mL in test [2] was below 50%. Also, in test [11], the pest or weed control at 500 ppm lay in the range of 80 to 100%.
Consider `FC(F)(F)C(CCCc1cccc(Oc2ccccc2)c1)c1ccc2c(c1)CCC2` (racemic) [Compound 52, 1,1,1-Trifluoro-2-(5-indanyl)-5-(3-phenoxyphenyl)pentane], for which the mortality at 250 ppm is below 50% in [1]; 80 to 100% in test [3]; 50 to 79% in test [4]; 80 to 100% in [5]; 50 to 79% in test [6]; 80 to 100% in test [7]. The mortality at 250 ppm in test [8] is below 50%; in [9] it was 80 to 100%; in test [10], 80 to 100%. The mortality at 125 µg/mL in [2] was below 50%. Moreover, in [11], the pest or weed control at 250 ppm is below 50%.
With `CCOc1c(F)cc(C(=CCCc2cccc(Oc3ccccc3)c2)C(F)(F)F)cc1F` [Compound 51, 1,1,1-Trifluoro-2-(3,5-difluoro-4-ethoxyphenyl)-5-(3-phenoxyphenyl)pent-2-ene], the mortality at 500 ppm was 80 to 100% in test [1]; below 50% in test [3]; 80 to 100% in [4]; 80 to 100% in [5]; 80 to 100% in test [6]; 80 to 100% in [7]. Moreover, the mortality at 500 ppm in test [8] was below 50%; in test [9], below 50%; in test [10] it was 80 to 100%. Besides, the mortality at 250 µg/mL in test [2] is below 50%. In addition, the pest or weed control at 500 ppm in test [11] was 80 to 100%.
On to `CC1Oc2ccc(C(CCCc3cccc(Oc4ccccc4)c3)C(F)(F)F)cc2O1` (stereo not drawn) [Compound 61, 1,1,1-Trifluoro-2-[3,4-(methylmethylenedioxy)-phenyl]-5-(3-phenoxyphenyl)pentane], for which the mortality at 500 ppm in test [1] is 80 to 100%; in test [3], below 50%; in test [4] it was 80 to 100%; in test [5] it was 80 to 100%; in [6], 80 to 100%; in test [7], 80 to 100%. The results for the mortality at 500 ppm in test [8], in [9] and in test [10] were below 50%, 80 to 100% and 80 to 100%, respectively. In test [2], the mortality at 250 µg/mL was below 50%. Further, in test [11], the pest or weed control at 500 ppm lay in the range of 80 to 100%.
`FC(F)(F)Oc1ccc(C(F)(CCCc2cccc(Oc3ccccc3)c2)C(F)(F)F)cc1` (racemic) [Compound 60, 1,1,1,2-tetrafluoro-2-(4-trifluoromethoxyphenyl)-5-(3-phenoxyphenyl)pentane]: the mortality at 250 ppm in [1], in test [3], in [4], in test [5], in test [6] and in [7] was 80 to 100% throughout. The mortality at 250 ppm in test [8], in test [9] and in [10] was 80 to 100% in each case. Besides, the mortality at 125 µg/mL in test [2] is below 50%. In test [11], the pest or weed control at 250 ppm is 80 to 100%.

One may read the mortality as the share of the test organisms that died.
